We go through 19 molecules from ChEMBL document CHEMBL1144249, “Identification of a novel class of androgen receptor antagonists based on the bicyclic-1H-isoindole-1,3(2H)-dione nucleus” (Bioorg Med Chem Lett, 2005).

Experiment [1] addresses Androgen receptor (Homo sapiens, UniProt P10275, L702H/T878A). The class given is functional, cell-based. Particulars: mdamb-pca2b.
For experiment [2], the target named is T1, Androgen receptor (Homo sapiens, UniProt P10275, T878A). Nature of the experiment: Activation of T877A androgen receptor of human prostate cancer LNCap cells in reporter gene assay. The class given is functional, cell-based.
T1 sequence (P10275 whole entry T878A): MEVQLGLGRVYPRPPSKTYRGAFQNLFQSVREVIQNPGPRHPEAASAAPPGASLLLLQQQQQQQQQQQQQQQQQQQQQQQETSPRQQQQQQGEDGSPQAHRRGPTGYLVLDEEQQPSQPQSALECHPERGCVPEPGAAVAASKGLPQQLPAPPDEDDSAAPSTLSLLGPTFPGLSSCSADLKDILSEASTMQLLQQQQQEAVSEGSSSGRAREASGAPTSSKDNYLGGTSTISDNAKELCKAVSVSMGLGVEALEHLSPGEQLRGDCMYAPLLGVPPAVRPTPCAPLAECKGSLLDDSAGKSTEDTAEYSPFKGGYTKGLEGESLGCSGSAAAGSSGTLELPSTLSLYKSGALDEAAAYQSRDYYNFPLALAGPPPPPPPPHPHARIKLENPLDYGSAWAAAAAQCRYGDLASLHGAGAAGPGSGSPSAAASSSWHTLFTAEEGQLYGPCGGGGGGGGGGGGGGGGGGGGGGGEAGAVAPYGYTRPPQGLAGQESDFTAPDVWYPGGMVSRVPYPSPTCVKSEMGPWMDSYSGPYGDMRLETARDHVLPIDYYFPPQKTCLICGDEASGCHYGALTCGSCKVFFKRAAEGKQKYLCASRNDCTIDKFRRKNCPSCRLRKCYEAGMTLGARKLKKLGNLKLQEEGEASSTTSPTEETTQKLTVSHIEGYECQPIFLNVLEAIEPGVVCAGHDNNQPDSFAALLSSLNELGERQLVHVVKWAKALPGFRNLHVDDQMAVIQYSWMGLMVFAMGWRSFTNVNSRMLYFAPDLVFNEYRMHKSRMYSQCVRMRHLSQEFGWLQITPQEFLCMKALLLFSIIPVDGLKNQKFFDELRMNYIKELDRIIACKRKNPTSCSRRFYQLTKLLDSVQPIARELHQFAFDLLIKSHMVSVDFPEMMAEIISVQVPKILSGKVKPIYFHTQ
In experiment [3] the target is T1, Androgen receptor. Nature of the experiment: Inhibition of [3H]-DHT binding to T877A androgen receptor of LNCaP cells.
Experiment [4] has as its target T2, Androgen receptor (Homo sapiens, UniProt P10275).
T2 sequence (P10275 whole entry): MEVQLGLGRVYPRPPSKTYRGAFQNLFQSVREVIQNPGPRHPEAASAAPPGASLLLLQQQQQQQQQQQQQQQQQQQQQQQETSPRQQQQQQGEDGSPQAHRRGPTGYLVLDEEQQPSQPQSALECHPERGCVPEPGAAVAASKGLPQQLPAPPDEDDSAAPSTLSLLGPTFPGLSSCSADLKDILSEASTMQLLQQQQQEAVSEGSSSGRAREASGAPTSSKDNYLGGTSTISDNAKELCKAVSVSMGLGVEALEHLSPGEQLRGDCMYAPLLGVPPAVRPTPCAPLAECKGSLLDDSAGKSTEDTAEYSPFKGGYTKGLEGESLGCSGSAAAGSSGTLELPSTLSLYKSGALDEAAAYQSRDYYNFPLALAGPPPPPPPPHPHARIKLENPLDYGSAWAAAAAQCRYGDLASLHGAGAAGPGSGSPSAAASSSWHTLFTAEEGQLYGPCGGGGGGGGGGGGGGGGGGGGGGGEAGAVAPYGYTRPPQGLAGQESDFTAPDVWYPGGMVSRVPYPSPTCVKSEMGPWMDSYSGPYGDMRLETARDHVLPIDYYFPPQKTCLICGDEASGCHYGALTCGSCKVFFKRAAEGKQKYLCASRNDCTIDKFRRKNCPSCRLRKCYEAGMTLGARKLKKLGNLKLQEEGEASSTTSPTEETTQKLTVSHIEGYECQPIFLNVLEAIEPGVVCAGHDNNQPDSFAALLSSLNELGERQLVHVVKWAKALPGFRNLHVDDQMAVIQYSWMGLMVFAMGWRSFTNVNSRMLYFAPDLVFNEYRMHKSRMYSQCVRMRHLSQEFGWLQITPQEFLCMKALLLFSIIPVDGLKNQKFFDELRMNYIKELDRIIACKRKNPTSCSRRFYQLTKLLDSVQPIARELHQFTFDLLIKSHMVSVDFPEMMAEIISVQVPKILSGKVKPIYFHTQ
Description: Inhibition of human androgen receptor of breast carcinoma MDA-453 cells in reporter gene assay

The target in experiment [5] is T1, Androgen receptor.
Description: Inhibition of T877A androgen receptor of human prostate cancer cells in reporter gene assay
The target of experiment [6] is T2, Androgen receptor. Nature of the experiment: Inhibition of [3H]DHT binding to androgen receptor of MDA-453 cells.

Each structure is given as a SMILES string.

Sequence of Androgen receptor (Homo sapiens, UniProt P10275, L702H/T878A) (P10275 whole entry L702H/T878A): as the sequence (P10275 whole entry T878A) above, with L702H counted along it

Consider `CC(C)(O)C(=O)Nc1ccc([N+](=O)[O-])c(C(F)(F)F)c1` [HYDROXYFLUTAMIDE], for which the IC50 entry at Androgen receptor [1] and on Androgen receptor [2] was “Agonist” in each case.
For `O=C1[C@@H]2C3CCC(C3)[C@@H]2C(=O)N1c1cccc(C(F)(F)F)c1` (stereo in doubt; 13), the Ki on Androgen receptor [3] stood at 0.002 µM. The IC50 stood at 0.317 µM against Androgen receptor [4] and 0.012 µM on Androgen receptor [5].
Take `O=C1[C@@H]2C3C=CC(C3)[C@@H]2C(=O)N1c1cc(C(F)(F)F)cc(C(F)(F)F)c1`: the values for the Ki on Androgen receptor [6] and on Androgen receptor [3] were 0.401 µM and 0.024 µM, respectively. Further, the 50% inhibitory concentration (IC50) on Androgen receptor [4] is 1.75 µM; against Androgen receptor [5], 0.072 µM.
As to `O=C1[C@@H]2C3CCC(C3)[C@@H]2C(=O)N1c1ccc([N+](=O)[O-])c(C(F)(F)F)c1` (stereo in doubt; 15), the results for the Ki at Androgen receptor [6] and on Androgen receptor [3] were 0.005 µM and 0.002 µM, respectively. Also, the IC50 result is “Agonist” against Androgen receptor [1] and 0.012 µM on Androgen receptor [4]. The “Agonist activity (qualitative)” value on Androgen receptor [2] was “Agonist”.
With `O=C1[C@@H]2C3CCC(C3)[C@@H]2C(=O)N1c1cccc(C(F)(F)F)c1` (stereo in doubt; 12), the Ki came to 0.319 µM on Androgen receptor [6] and 0.0034 µM on Androgen receptor [3]. The IC50 against Androgen receptor [4] is 0.127 µM; against Androgen receptor [5], 0.007 µM.
As to `O=C1[C@@H]2C3CCC(C3)[C@@H]2C(=O)N1c1ccc([N+](=O)[O-])c(C(F)(F)F)c1` (stereo in doubt; 16), on Androgen receptor [3] (lncap), the inhibitory constant (Ki) is 0.002 µM.
For `O=C1[C@@H]2C3C=CC(C3)[C@@H]2C(=O)N1c1ccc([N+](=O)[O-])c(C(F)(F)F)c1`, the Ki came to 0.055 µM on Androgen receptor [6] and 0.005 µM at Androgen receptor [3]. The IC50 result is “Agonist” against Androgen receptor [1] and 0.119 µM against Androgen receptor [4]. The “Agonist activity (qualitative)” value on Androgen receptor [2] is “Agonist”.
Regarding `Cc1cc(N2C(=O)[C@@H]3C4C=CC(C4)[C@@H]3C2=O)ccc1Br`, the figures for the Ki at Androgen receptor [6] and on Androgen receptor [3] were 0.125 µM and 0.0036 µM, respectively. The IC50 result is “Agonist” on Androgen receptor [1] and 0.22 µM at Androgen receptor [4]. Moreover, the “Agonist activity (qualitative)” value at Androgen receptor [2] was “Agonist”.
`O=C1[C@@H]2C3C=CC(C3)[C@@H]2C(=O)N1c1ccc(F)c(Cl)c1`: affinity at Androgen receptor [3] was put at a Ki of 0.002 µM. For the same molecule, the IC50 was 0.517 µM against Androgen receptor [4] and 0.033 µM against Androgen receptor [5].
Taken in the same sequence, the figures for `O=C1[C@@H]2C3CCC(C3)[C@@H]2C(=O)N1c1ccc2ccccc2c1` were 0.011 µM, 1.2 µM and 0.084 µM.
For the molecule `O=C1[C@@H]2C3C=CC(C3)[C@@H]2C(=O)N1c1ccc([N+](=O)[O-])c2ccccc12`, the Ki is 0.001 µM on Androgen receptor [6] and 0.0005 µM at Androgen receptor [3]. Also, the 50% inhibitory concentration (IC50) result on Androgen receptor [1] was “Agonist”; against Androgen receptor [4], > 0.005 µM. The “Agonist activity (qualitative)” value on Androgen receptor [2] is listed as “Agonist”.
With `O=C1[C@@H]2C3C=CC(C3)[C@@H]2C(=O)N1c1cc(Cl)cc(Cl)c1`, the Ki on Androgen receptor [6] came out at 0.158 µM; on Androgen receptor [3], 0.006 µM. Further, the IC50 on Androgen receptor [4] was found to be 0.307 µM; against Androgen receptor [5] it was 0.041 µM.
Turning to `O=C1[C@@H]2C3C=CC(C3)[C@@H]2C(=O)N1c1ccc([N+](=O)[O-])cc1`, the values for the Ki at Androgen receptor [6] and at Androgen receptor [3] were 0.192 µM and 0.012 µM, respectively. The IC50 at Androgen receptor [4] amounted to 0.664 µM; at Androgen receptor [5], 0.03 µM.
Regarding `O=C1[C@@H]2C3C=CC(C3)[C@@H]2C(=O)N1c1ccc2ccccc2c1`, the Ki turned out to be 0.284 µM on Androgen receptor [6] and 0.011 µM on Androgen receptor [3]. Moreover, the IC50 on Androgen receptor [4] worked out at 1.21 µM; against Androgen receptor [5] it was 0.084 µM.
On the same counts, the results for `Cc1ccc(N2C(=O)[C@@H]3C4C=CC(C4)[C@@H]3C2=O)cc1C` are 0.4 µM, 0.0034 µM, 2.01 µM and 0.01 µM.
The molecule `O=C1[C@@H]2C3C=CC(C3)[C@@H]2C(=O)N1c1ccc2cccnc2c1` showed a Ki at Androgen receptor [3] of 0.013 µM. Further, the IC50 at Androgen receptor [4] stood at 1.04 µM; at Androgen receptor [5], 0.052 µM.
Consider `O=C1[C@@H]2C3C=CC(C3)[C@@H]2C(=O)N1c1ccc(O)c2ncccc12`, for which the results for the Ki on Androgen receptor [6] and on Androgen receptor [3] were 0.162 µM and 0.032 µM, respectively. Moreover, the results for the IC50 against Androgen receptor [4] and against Androgen receptor [5] were 0.418 µM and 1.79 µM, respectively.
On the same counts, the results for `O=C1[C@@H]2C3C=CC(C3)[C@@H]2C(=O)N1c1cccc(C(F)(F)F)c1` are 0.632 µM, 0.007 µM, 0.744 µM and 0.035 µM.
As for `O=C1[C@@H]2C3C=CC(C3)[C@@H]2C(=O)N1c1ccc(Br)c(C(F)(F)F)c1`, the Ki came out at 0.046 µM on Androgen receptor [6] and 0.0006 µM on Androgen receptor [3]. Further, the IC50 result against Androgen receptor [1] is “Agonist”; against Androgen receptor [4] it was 0.146 µM. Besides, the “Agonist activity (qualitative)” value on Androgen receptor [2] is recorded as “Agonist”.
